Entries after “also recorded” stand apart in the source; their conditions may differ.
Assays:
F508del-CFTR cells = assay: Forskolin-activated CFTR response in CF-mutant human bronchial epithelial cells (membrane potential dye); assay type: cell-based
Description: This example describes experiments showing that LasB impacted CFTR function in CF mutant cells can be mitigated by treatment with CFTR modulators and LasB inhibitors.
Wild Type human bronchial epithelial (HBE) cells and CF-mutant human bronchial epithelial cells (F508del-CFTR) are grown at 37° C. for 5 days and loaded onto 96-well plate cultures. The cells are loaded with blue membrane potential dye dissolved in chloride-free buffer. The plate is read in a fluorescence plate reader at 37° C. (excitation: 530 nm; emission; […]). CFTR is stimulated with forskolin.
A control signal defined as 100% transmission is obtained from WT human bronchial epithelial cells alone. A minor suppression of forskolin-activated CFTR response is expected for such WT cells in the presence of LasB.
Moderate suppression in the forskolin-activated CFTR response will be observed for CF-mutant cells. This moderate suppression will be reduced by addition of a CFTR modulator such as VX-809 (lumacaftor).
Substantial suppression in the forskolin-activated CFTR response is expected for CF-mutant cells in the presence of LasB, even following the addition of a CFTR modulator, due to the deleterious effect of LasB on expressed CFTR protein.

[1] = target: T1, purified LasB protein from P. aeruginosa (Pseudomonas aeruginosa, UniProt P14756); assay: Fluorometric assay to determine Ki (purified LasB, Abz-Ala-Gly-Leu-Ala-p-Nitro-Benzyl-Amide substrate); assay type: biochemical
T1 construct: purchased Merck or Charles River Laboratories
Description: (§1) Experiments were therefore conducted (1) to measure the potency of inhibition of compounds of the invention against purified Pseudomonas aeruginosa LasB enzyme and also experiments were conducted (2) to measure the ability of compounds of the invention to inhibit LasB-catalysed elastin degradation. The first assay uses a commercial fluorescent synthetic peptide and purified LasB enzyme. The LasB hydrolysis kinetics are measured allowing the determination of the IC50 and Ki of the inhibitors; the second is a more physiological assay using dialysed Pseudomonas aeruginosa supernatant as source of enzyme, plus its natural substrate Elastin. It is an “end point assay” that determines the percentage of LasB inhibition by each compound for one particular time point and inhibitor concentration. Technical details are described below:
This assay uses commercially available substrate (Abz-Ala-Gly-Leu-Ala-p-Nitro-Benzyl-Amide (Ex: 340 nm, Em: 415 nm) from Peptide International) and purified LasB protein from P. aeruginosa (provided by Merck or Charles River Laboratories). It is performed to determine LasB elastase activity and assess compound inhibition in 96-well plate format. All compounds of Formula (I) were assessed using the method described below.
Method: 10 to 140 ng/ml purified LasB is incubated with 250 μM Abz-Ala-Gly-Leu-Ala-p-Nitro-Benzyl-Amide in 50 mM Tris-HCl pH 7.4, 2.5 mM CaCl2), 0.01% of Triton X100 at 37° C. LasB activity (corresponding to fluorescence emission induced by substrate hydrolysis) is measured over 30 min at 37° C. with a fluorescence plate reader such as the Perkin Elmer Envision or similar. Different range of inhibitor concentrations are routinely assessed depending of inhibitor potency from 0.0016 to 200 μM (2-fold dilutions series) in order to determine IC50.
The equation used to calculate the Ki from IC50 is: Ki=IC50/(1+([S]/Km)) where [S]=250 μM and Km=214 μM.

[2] = target: T2, LasB elastase activity of dialysed supernatant from P. aeruginosa PAO1 (Pseudomonas aeruginosa, UniProt P14756); assay: Elastin Congo-Red assay to determine % inhibition (dialysed PAO1 supernatant); assay type: biochemical; conditions: read-out: Elastin hydrolysis % inhibition @ 25 μM inhibitor concentration
T2 construct: Culture supernatants are recovered by centrifugation and filtrated through a 0.22 μM filter; endogenous in cells; host or cells: P. aeruginosa strain PAO1, culture supernatant, filtered and dialysed
Description: as §1
The Elastin assay uses as source of enzyme dialysed supernatant from P. aeruginosa PAO1 and the Elastin Congo-Red as substrate. The natural LasB substrate, elastin, is complexed with the congo-red dye (Elastin Congo-Red, ECR). The elastolysis activity from the culture supernatant will degrade elastin and release the congo-red dye into the supernatant. This red dye release can be measured with a spectrophotometer.
Method: To determine LasB elastase activity and assess compound inhibition, an overnight culture of P. aeruginosa strain PAO1 is diluted in LB medium. After reaching an OD600nm of 0.6, this culture is diluted and incubated for additional 18-24 hours in a shaking incubator. Culture supernatants are recovered by centrifugation and filtrated through a […] filter. These supernatants are dialysed (filtration molecules <20 kDa) into a 50 mM Tris-HCl pH 7.4, 2.5 mM CaCl2 solution at 4° C. under agitation for 24 hours. Supernatant dialysed is then mixed volume/volume with the ECR suspension (20 mg/mL of ECR in 100 mM Tris-HCl pH 7.4 buffer supplemented with 1 mM CaCl2)) supplemented with Triton X100 (final concentration of 0.01%) in presence of DMSO (positive control) and/or different concentrations of compound (routinely 50 to 1.56 μM). As a negative control, the dialysed supernatant is replaced by Tris-HCl solution (50 mM Tris-HCl pH 7.4, 2.5 mM CaCl2). The mixed reaction is then incubated overnight in a 37° C. shaking incubator. The reaction supernatant is recovered by centrifugation and the release of congo-red is measured by its absorbance at 495 nm (OD495nm).
Percentage inhibition is determined using the following equation:
((OD495 nm value of positive control−OD495nm value of negative control)−(OD495nm value of treated supernatant−OD495nm value of negative control))/(OD495nm value of positive control−OD495nm value of negative control)×100.

purified LasB = purified LasB (Pseudomonas aeruginosa, UniProt P14756); assay: Inhibition of LasB-mediated hydrolysis of pro-IL-1β to IL-1β (FRET peptide); assay type: biochemical
Description: Hydrolysis of this FRET peptide was continuously monitored using a Victor multimode plate reader (Perkin Elmer) with excitation 355 nm and emission at 450 nm in the presence of varying concentrations of compounds of the invention. Inhibitory constants (Ki) were determined for certain compounds of the invention (at least 2 independent replicates) using a competitive inhibitor model.

PA (PAO1) = assay: Mouse model of Pseudomonas aeruginosa lung infection; assay type: in vivo; conditions: mice infected with wild-type PAO1, i.v. 1 h and 2 h post infection, 10 and 30 mg/kg, 24 hours post infection
Description: Mice were dosed by intranasal inoculation of PA (PAO1), then sacrificed after 24 hours. The extent of infection in the lung was quantified by bacterial load (CFU determination, colony forming units) and the levels of proinflammatory IL-1β. Statistical analysis on both readouts were performed by ANOVA with a Dunnett post-test.
Compounds were administered intravenously in a two-dose regimen (1 hour and 2 hours post infection) at two different doses (10 and 30 mg/kg).

[3] = test system: cells infected by tobramycin-resistance PA bacteria; conditions: combination with CFTR modulators, tobramycin-resistant PA; cited from earlier work
[4] = test system: PAO1 WT secretome (contains LasB); conditions: WT-SEC treated cells; cited from earlier work

T2 sequence (P14756 198-498): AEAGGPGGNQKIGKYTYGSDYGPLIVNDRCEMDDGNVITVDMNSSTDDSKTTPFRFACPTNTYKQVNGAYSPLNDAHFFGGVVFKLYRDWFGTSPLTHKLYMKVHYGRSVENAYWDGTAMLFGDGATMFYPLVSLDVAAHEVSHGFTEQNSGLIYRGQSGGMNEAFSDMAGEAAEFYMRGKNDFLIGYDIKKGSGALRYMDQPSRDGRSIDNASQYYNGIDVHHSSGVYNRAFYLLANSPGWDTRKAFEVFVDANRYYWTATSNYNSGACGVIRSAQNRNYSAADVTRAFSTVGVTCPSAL
Sequence of purified LasB (P14756 198-498): as above
T1 sequence (P14756 198-498): as above

Compound | Ki [1] | inhibition at 25 µM [2] | Ki (purified LasB) | further results
Cc1ccc(NC(=O)C2(c3ccc4c(c3)OC(F)(F)O4)CC2)nc1-c1cccc(C(=O)O)c1 [VX-809, lumacaftor, reference compound] | – | – | – | Maximum forskolin-activated response of CFTR channels compared to WT human bronchial epithelial cells (F508del-CFTR cells; F508del-CFTR cells + 10 μM VX-809): Minor suppression of CFTR; Maximum forskolin-activated response of CFTR channels compared to WT human bronchial epithelial cells (F508del-CFTR cells; F508del-CFTR cells + 10 μM VX-809 + 0.01 μM LasB): substantial suppression of CFTR
COc1cc2sc(CNC(=O)C3(CC(=O)[O-])Cc4ccccc4C3)nc2cc1OCCC[N+](C)(C)CCO [Example 20, 2-[2-[[5-[3-[2-hydroxyethyl(dimethyl)ammonio]propoxy]-6-methoxy-1,3-benzothiazol-2-yl]methylcarbamoyl]indan-2-yl]acetate] | < 50 nM | 60 to 80% | 340 nM | –
COc1cc2sc(CNC(=O)C3(CC(=O)[O-])Cc4ccccc4C3)nc2cc1OCCC[N+](C)(CCO)CCO [Example 22, 2-[2-[[5-[3-[bis(2-hydroxyethyl)-methyl-ammonio]propoxy]-6-methoxy-1,3-benzothiazol-2-yl]methylcarbamoyl]indan-2-yl]acetate] | < 50 nM | 60 to 80% | 400 nM | –
COc1cc2sc(CNC(=O)C3(CC(=O)[O-])Cc4cc(F)c(F)cc4C3)nc2cc1OCC1CC[N+](C)(C)CC1 [Example 44, 2-[2-[[5-[(1,1-dimethylpiperidin-1-ium-4-yl)methoxy]-6-methoxy-1,3-benzothiazol-2-yl]methylcarbamoyl]-5,6-difluoro-indan-2-yl]acetate] | < 50 nM | > 80% | 300 nM | –
COc1cc2sc(CNC(=O)C3(CC(=O)[O-])Cc4cc(F)c(F)cc4C3)nc2cc1OCCOCC[N+](C)(C)C [Example 55, 2-[5,6-difluoro-2-[[6-methoxy-5-[2-[2-(trimethylammonio)ethoxy]ethoxy]-1,3-benzothiazol-2-yl]methylcarbamoyl]indan-2-yl]acetate] | < 50 nM | – | 420 nM | –
COc1cc2sc(CNC(=O)C3(CC(=O)[O-])Cc4ccccc4C3)nc2cc1OCCC[N+](C)(C)C [Example 53, 2-[2-[[6-methoxy-5-[3-(trimethylammonio)propoxy]-1,3-benzothiazol-2-yl]methylcarbamoyl]indan-2-yl]acetate] | < 50 nM | – | 700 nM | extent of infection in the lung (CFU levels) (PA (PAO1)): reduced the extent of infection in the lung to the level of the LasB deleted mutant; production and activation of IL-1β in the lung (PA (PAO1)): inhibited the production and activation of IL-1β in mice infected by wild-type PA (PA01) at a similar level than the lasB deleted mutant; Maximum forskolin-activated response of CFTR channels compared to WT human bronchial epithelial cells (F508del-CFTR cells; F508del-CFTR cells + 10 μM VX-809 + 0.01 μM LasB + 10 μM Example 53): forskolin-activated CFTR response being substantially restored; also recorded: Minor suppression of CFTR
NC[C@H]1O[C@H](O[C@H]2[C@H](O)[C@@H](O[C@H]3O[C@H](CO)[C@@H](O)[C@H](N)[C@H]3O)[C@H](N)C[C@@H]2N)[C@H](N)C[C@@H]1O [tobramycin] | – | – | – | restoration of CFTR function [3]: incapable of restoring CFTR function
COc1cc2sc(CNC(=O)C3(CC(=O)[O-])Cc4cc(F)c(F)cc4C3)nc2cc1OCCC[N+]1(C)CCCC1 [Example 19, 2-[5,6-difluoro-2-[[6-methoxy-5-[3-(1-methylpyrrolidin-1-ium-1-yl)propoxy]-1,3-benzothiazol-2-yl]methylcarbamoyl]indan-2-yl]acetate] | < 50 nM | > 80% | 270 nM | –
COc1cc2sc(CNC(=O)C3(CC(=O)O)Cc4cc(F)c(F)cc4C3)nc2cc1OCC1CCN(C)CC1 [Example 11, 2-[5,6-difluoro-2-[[6-methoxy-5-[(1-methyl-4-piperidyl)methoxy]-1,3-benzothiazol-2-yl]methylcarbamoyl]indan-2-yl]acetic acid] | < 50 nM | > 80% | 220 nM | –
COc1cc2sc(CNC(=O)C3(CC(=O)O)Cc4ccccc4C3)nc2cc1OCCN1CCOCC1 [Example 9, 2-[2-[[6-methoxy-5-(2-morpholinoethoxy)-1,3-benzothiazol-2-yl]methylcarbamoyl]indan-2-yl]acetic acid] | < 50 nM | > 80% | 160 nM | –
COc1cc2sc(CNC(=O)C3(CC(=O)O)Cc4cc(F)c(F)cc4C3)nc2cc1C(=O)N1CC(N(C)C)C1 [Example 37, 2-[2-[[5-[3-(dimethylamino)azetidine-1-carbonyl]-6-methoxy-1,3-benzothiazol-2-yl]methylcarbamoyl]-5,6-difluoro-indan-2-yl]acetic acid] | < 50 nM | > 80% | – | –
CC(C)C[C@H](NP(=O)(O)O[C@@H]1O[C@@H](C)[C@H](O)[C@@H](O)[C@H]1O)C(=O)N[C@@H](Cc1c[nH]c2ccccc12)C(=O)O [phosphoramidon] | – | – | – | downregulation of trappin-2 and IL-6 by WT secretome [4]: prevented
NC1CCN(S(=O)(=O)c2cccc3sc(CNC(=O)C4(CC(=O)O)Cc5ccccc5C4)nc23)C1 (stereo not drawn) [Example 6, 2-[2-[[4-(3-aminopyrrolidin-1-yl)sulfonyl-1,3-benzothiazol-2-yl]methylcarbamoyl]indan-2-yl]acetic acid] | 50 to 200 nM | 60 to 80% | – | –
